A short description of this data set: Inhibition of MDR1 in human KB/VCR cells assessed as potentiation of vincristine-induced cytotoxicity by measuring vincristine IC50 at 25 uM after 72 hrs by Western blot analysis (Rvb = 4.21 +/- 0.33 uM).

The term IC50 denotes the concentration needed to halve the response being measured. With `CC(C)C(=O)OC(C)(C)[C@@H]1Cc2c(ccc3ccc(=O)oc23)O1`, the IC50 is 560 nM.
